Reference: US5364861A, “Optical isomers of 7-[3-(1,1-dialkylmethyl-1-amino-1-pyrrolidinyl]-quinolones and naphthyridones as antibacterial agents” (Warner-Lambert Company, priority 1993, dated 1994)
Values after ≈ are worked out from the molar mass of the structure shown. Where a name gives a salt, the structure may show the parent alone. Read-outs that look alike come from different tables or passages of the source.

Assays:
[1] = test system: Esch. coli Vogel; test: in vitro antibacterial activity, microtitration dilution (MIC), Esch. coli Vogel; type: cell-based; details: Escherichia coli, read-out: minimum inhibiting concentration (MIC)
Text: (§1) The in vitro antibacterial activity is obtained when tested by the microtitration dilution method as described in Heifetz, et al., Antimicr. Agents & Chemother. 1974;6:124, which is incorporated herein by reference.
(§2) By use of the above methods, the following minimum inhibiting concentration values (MICs in μg/ml), PD50 's in mg/kg, no effect phototoxicity dose in mg/kg and the cytotoxicity IC50 in μg/mL were obtained for representative enantiomers of the invention and compounds of the prior art as shown in the table.

[2] = test system: Ent. cloacae MA2646; test: in vitro antibacterial activity, microtitration dilution (MIC), Ent. cloacae MA2646; type: cell-based; details: Enterobacter cloacae, read-out: minimum inhibiting concentration (MIC)
Text: as §1, §2

[3] = test system: Strep. pneumoniae SV-1; test: in vitro antibacterial activity, microtitration dilution (MIC), Strep. pneumoniae SV-1; type: cell-based; details: Streptococcus pneumoniae, SV1, read-out: minimum inhibiting concentration (MIC)
Text: as §1, §2

[4] = test system: Strep. faecalis MGH-2; test: in vitro antibacterial activity, microtitration dilution (MIC), Strep. faecalis MGH-2; type: cell-based; details: Enterococcus faecalis, MGH2, read-out: minimum inhibiting concentration (MIC)
Text: as §1, §2

[5] = test system: Klebs. pneumoniae MGH-2; test: in vitro antibacterial activity, microtitration dilution (MIC), Klebs. pneumoniae MGH-2; type: cell-based; details: Klebsiella pneumoniae, MGH2, read-out: minimum inhibiting concentration (MIC)
Text: as §1, §2

[6] = test system: Pseud. aeruginosa UI-18; test: in vitro antibacterial activity, microtitration dilution (MIC), Pseud. aeruginosa UI-18; type: cell-based; details: Pseudomonas aeruginosa, UI18, read-out: minimum inhibiting concentration (MIC)
Text: as §1, §2

[7] = test system: Prot. rettgeri M 1771; test: in vitro antibacterial activity, microtitration dilution (MIC), Prot. rettgeri M 1771; type: cell-based; details: Providencia rettgeri, M1771, read-out: minimum inhibiting concentration (MIC)
Text: as §1, §2

[8] = test system: Staph. aureus UC-76; test: in vitro antibacterial activity, microtitration dilution (MIC), Staph. aureus UC-76; type: cell-based; details: Staphylococcus aureus, UC76, read-out: minimum inhibiting concentration (MIC)
Text: as §1, §2

[9] = test system: Staph. aureus H 228; test: in vitro antibacterial activity, microtitration dilution (MIC), Staph. aureus H 228; type: cell-based; details: Staphylococcus aureus, H228, read-out: minimum inhibiting concentration (MIC)
Text: as §1, §2

[10] = test system: Strep. pyogenes C-203; test: in vitro antibacterial activity, microtitration dilution (MIC), Strep. pyogenes C-203; type: cell-based; details: Streptococcus pyogenes, C203, read-out: minimum inhibiting concentration (MIC)
Text: as §1, §2

[11] = test system: Strep. pyogenes C-203; test: median protective dose in mice given lethal systemic infection, Strep. pyogenes; type: in vivo; details: Streptococcus pyogenes, C203, Strep. pyogenes, single dose at time of challenge, route not given, read-out: median protective dose (PD50)
Procedure: (§3) The in vivo activity is obtained when the compounds are tested according to the procedure of Miller, et al (Proc. Soc. Exp. Biol. Med. 1944;57:261). The median protective dose (PD50) was determined in mice given lethal systemic infections. Single doses of compound were given at time of challenge.
as §2
(§4) The in vivo data as PD50 's are reported below the line of MICs for the same compound.

[12] = test system: Esch. coli Vogel; test: median protective dose in mice given lethal systemic infection, Esch. coli; type: in vivo; details: Escherichia coli, single dose at time of challenge, route not given, read-out: median protective dose (PD50)
Procedure: as §3, §2, §4

[13] = test system: Pseud. aeruginosa UI-18; test: median protective dose in mice given lethal systemic infection, Pseud. aeruginosa; type: in vivo; details: Pseudomonas aeruginosa, UI18, Pseud. aeruginosa, single dose at time of challenge, route not given, read-out: median protective dose (PD50)
Procedure: as §3, §2, §4

[14] = cytotoxicity, colony reduction of hamster V-79 cells; type: cell-based; details: 3 hours treatment, colonies counted after 5 days, read-out: cytotoxicity IC50 (Cytotox)
Procedure: The cytotoxicity data is obtained using hamster V-79 cells. The cells were suspended in tissue culture medium and grown overnight. Cells were treated with drug for 3 hours, washed free of drug and then replated, and the colonies counted after 5 days. The concentration of drug that reduced colonies by 50% relative to control was recorded.
as §2

[15] = in vivo; parameters: species or system mice; details: mouse, po
Procedure: The phototoxicity data is obtained using depilated mice. Compound was administered orally each day for four successive days, followed each day by 3 hours of […] radiation. The mice were examined for any positive signs (redness, erythema) relative to control animals. The no effect dose and the 50% effect dose were determined. By use of the above methods, the following minimum inhibiting concentration values (MICs in μg/ml), PD50 's in mg/kg, no effect phototoxicity dose in mg/kg and the cytotoxicity IC50 in μg/mL were obtained for representative enantiomers of the invention and compounds of the prior art as shown in the table.

SMILES | MIC [1] [µg/mL] | MIC [2] [µg/mL] | MIC [3] [µg/mL] | MIC [4] [µg/mL] | MIC [5] [µg/mL] | MIC [6] [µg/mL] | MIC [7] [µg/mL] | MIC [8] [µg/mL] | MIC [9] [µg/mL] | MIC [10] [µg/mL] | ED50 ([11]; first line below the MICs) [mg/kg] | ED50 ([11]; second line below the MICs) [mg/kg] | ED50 ([12]; first line below the MICs) [mg/kg] | ED50 ([12]; second line below the MICs) [mg/kg] | ED50 ([13]; first line below the MICs) [mg/kg] | ED50 ([13]; second line below the MICs) [mg/kg] | CC50 at 3 h [14] [µg/mL] | NOAEL [15] [mg/kg]
Cc1c(F)c(N2CC[C@H](C(C)(C)N)C2)cc2c1c(=O)c(C(=O)O)cn2-c1ccc(F)cc1F [Example 11, S-7-[3-(1-amino-1-methylethyl)-1-pyrrolidinyl]-1-(2,4-difluorophenyl)-6-fluoro-1,4-dihydro-5-methyl-4-oxo-3-quinolinecarboxylic acid] | 0.1 (≈ 0.218 µM) | 0.1 (≈ 0.218 µM) | 0.013 (≈ 0.0283 µM) | 0.1 (≈ 0.218 µM) | 0.2 (≈ 0.435 µM) | 1.6 (≈ 3.48 µM) | 0.4 (≈ 0.871 µM) | 0.013 (≈ 0.0283 µM) | 0.025 (≈ 0.0544 µM) | 0.013 (≈ 0.0283 µM) |  |  |  |  |  |  |  | 
COc1c(N2CC[C@H](C(C)(C)N)C2)c(F)cc2c(=O)c(C(=O)O)cn(C3CC3)c12 [Example 8, (S)-7-[3-(1-Amino-1-methylethyl)-1-pyrrolidinyl]-1-cyclopropyl-6-fluoro-1,4-dihydro-8-methoxy-4-oxo-3-quinolinecarboxylic acid] | 0.2 (≈ 0.496 µM) | 0.2 (≈ 0.496 µM) | 0.025 (≈ 0.062 µM) | 0.05 (≈ 0.124 µM) | 0.4 (≈ 0.991 µM) | 3.1 (≈ 7.68 µM) | 0.8 (≈ 1.98 µM) | 0.013 (≈ 0.0322 µM) | 0.05 (≈ 0.124 µM) | 0.025 (≈ 0.062 µM) |  |  |  |  |  |  |  | 
CC(C)(N)[C@@H]1CCN(c2c(F)cc3c(=O)c(C(=O)O)cn(C4CC4)c3c2Cl)C1 [Example 2, (R)-7-[3-(1-Amino-1-methylethyl-1-pyrrolidinyl]-8-chloro-1-cyclopropyl-6-fluoro-1,4-dihydro-4-oxo-3-quinolinecarboxylic acid, monohydrochloride] | 0.05 | 0.05 | ≤ 0.003 | 0.013 | 0.1 | 0.8 | 0.2 | ≤ 0.003 | 0.006 | ≤ 0.003 | 2 | 0.14 | 8 | 1 | 100 | 17 | 8 | 
COc1c(N2CC[C@@H](C(C)(C)N)C2)c(F)cc2c(=O)c(C(=O)O)cn(C3CC3)c12 [Example 7, (R)-7-[3-(1-Amino-1-methylethyl)-1-pyrrolidinyl]-1-cyclopropyl-6-fluoro-1,4-dihydro-8-methoxy-4-oxo-3-quinolinecarboxylic acid] | 0.1 (≈ 0.248 µM) | 0.1 (≈ 0.248 µM) | ≤ 0.003 | 0.013 (≈ 0.0322 µM) | 0.2 (≈ 0.496 µM) | 1.6 (≈ 3.97 µM) | 0.4 (≈ 0.991 µM) | ≤ 0.003 | 0.013 (≈ 0.0322 µM) | < 0.003 | 3 | 0.8 | 26 | 3 |  |  | 18 (≈ 44.6 µM) | 
CC(C)(N)[C@H]1CCN(c2c(F)cc3c(=O)c(C(=O)O)cn(C4CC4)c3c2F)C1 [Example 12, (S)-7-[3-(1-Amino-1-methylethyl)-1-pyrrolidinyl]-1-cyclopropyl-6,8-difluoro-1,4-dihydro-4-oxo-3-quinolinecarboxylic acid] | 0.1 (≈ 0.255 µM) | 0.2 (≈ 0.511 µM) | 0.006 (≈ 0.0153 µM) | 0.025 (≈ 0.0639 µM) | 0.2 (≈ 0.511 µM) | 1.6 (≈ 4.09 µM) | 0.4 (≈ 1.02 µM) | ≤ 0.003 | 0.025 (≈ 0.0639 µM) | 0.006 (≈ 0.0153 µM) | 12 | 0.6 |  |  |  |  |  | 
CC(C)(N)[C@H]1CCN(c2nc3c(cc2F)c(=O)c(C(=O)O)cn3C2CC2)C1.Cl [Example 3, (S)-7-[3-(1-Amino-1-methylethyl)-1-pyrrolidinyl]-1-cyclopropyl-6-fluoro-1,4-dihydro-4-oxo-1,8-naphthyridine-3-carboxylic acid, monohydrochloride] | 0.2 | 0.2 | 0.05 | 0.1 | 0.4 | 3.1 | 0.8 | 0.025 | 0.1 | 0.1 | 32 | 7 | 10 | 3 |  |  | 58 | 30
CNC(C)(C)[C@@H]1CCN(c2c(F)cc3c(=O)c(C(=O)O)cn(C4CC4)c3c2Cl)C1 [Example 6, (R)-08-Chloro-1-cyclopropyl-6-fluoro-1,4-dihydro-7-{3-[1-methyl-1-(methylamino)ethyl]-1-pyrrolidinyl}-4-oxo-3-quinolinecarboxylic acid, monohydrochloride] | 0.2 | 0.2 | ≤ 0.003 | 0.025 | 0.4 | 3.1 | 0.4 | ≤ 0.003 | 0.013 | ≤ 0.003 | 3 | 0.5 | 11 | 2 |  |  |  | 
Cc1c(F)c(N2CC[C@@H](C(C)(C)N)C2)cc2c1c(=O)c(C(=O)O)cn2-c1ccc(F)cc1F [Example 10, (R)-7-[3-(1-Amino-1-methylethyl)-1-pyrrolidinyl]-1-(2,4-difluorophenyl)-6-fluoro-1,4-dihydro-5-methyl-4-oxo-3-quinolinecarboxylic acid] | 0.4 (≈ 0.871 µM) | 0.4 (≈ 0.871 µM) | 0.4 (≈ 0.871 µM) | 0.4 (≈ 0.871 µM) | 0.8 (≈ 1.74 µM) | 3.1 (≈ 6.75 µM) | 1.6 (≈ 3.48 µM) | 0.05 (≈ 0.109 µM) | 0.1 (≈ 0.218 µM) | 0.2 (≈ 0.435 µM) |  |  |  |  |  |  |  | 
CC(C)(N)[C@H]1CCN(c2c(F)cc3c(=O)c(C(=O)O)cn(C4CC4)c3c2Cl)C1 [Example 1, (S)-7-[3-(1-Amino-1-methylethyl)-1-pyrrolidinyl]-8-chloro-1-cyclopropyl-6-fluoro-1,4-dihydro-4-oxo-3-quinolinecarboxylic acid, monohydrochloride] | 0.1 | 0.1 | 0.013 | 0.05 | 0.2 | 1.6 | 0.4 | 0.013 | 0.025 | 0.025 | 13 | 4 | 27 | 4 |  |  |  | 
CC(C)(N)C1CCN(c2nc3c(cc2F)c(=O)c(C(=O)O)cn3C2CC2)C1 (centres unmarked) [reference compound] | 0.1 (≈ 0.267 µM) | 0.1 (≈ 0.267 µM) | 0.025 (≈ 0.0668 µM) | 0.05 (≈ 0.134 µM) | 0.2 (≈ 0.534 µM) | 1.6 (≈ 4.27 µM) | 0.4 (≈ 1.07 µM) | 0.013 (≈ 0.0347 µM) | 0.05 (≈ 0.134 µM) | 0.025 (≈ 0.0668 µM) |  |  |  |  |  |  | 66 (≈ 176 µM) | 30
CC(C)(N)[C@@H]1CCN(c2cc3c(c(N)c2F)c(=O)c(C(=O)O)cn3C2CC2)C1 [Example 9, (R)-7-[3-(1-Amino-1-methylethyl)-1-pyrrolidinyl]-5-amino-1-cyclopropyl-6-fluoro-1,4-dihydro-4-oxo-3-quinolinecarboxylic acid] | 0.4 (≈ 1.03 µM) | 0.4 (≈ 1.03 µM) | 0.006 (≈ 0.0154 µM) | 0.05 (≈ 0.129 µM) | 0.8 (≈ 2.06 µM) | 3.1 (≈ 7.98 µM) | 0.8 (≈ 2.06 µM) | 0.006 (≈ 0.0154 µM) | 0.025 (≈ 0.0644 µM) | 0.006 (≈ 0.0154 µM) | 11 | 2 |  |  |  |  | 13 (≈ 33.5 µM) | 
